# Legend:
# [1] = test system: creatine transporter mRNA; assay: In situ hybridization of creatine transporter mRNA in rat brain; format: in vivo; conditions: 48 hours after icv 0.4 um/kg; arcuate, dorsomedial, ventromedial, third ventricle, paraventricular thalamic, habenular areas; FIG. 6
# Excerpt: At least 3 rats per group were used for each individual probe. Brains were dissected as described above and were cut vertically to remove the anterior portion at the optic chiasm and the posterior portion at the interpeduncular fossa so that the remaining blocks included the whole hypothalamus with a small additional margin of adjacent tissue. The blocks were immediately frozen on foil on dry ice, then stored at −80 degrees C. Blocks were sectioned in a cryostat (Micron HM500O) at −20 degrees C. and at a thickness of 13 microns. The slides were fixed in 4% paraformaldehyde for 5 minutes and acetylated in 1.3% triethanolamine and 0.5% acetic anhydride, pH 8.0 for 5 minutes. […] After air drying, the slides were ready to use.
# For preparation of radiolabeled riboprobes, the DNA fragments containing the creatine transporter insert and a T7 or SP6 phage promoter sequence in each side were produced from cloning vectors (pCRII-TOPO, Invitrogene; PCR-TRAP, GenHunter) either by restriction endonuclease digestion or by PCR amplification. […] The cpm value was determined by counting in a liquid scintillation spectrometer. […]
# For dipping and developing in situ slides, Kodak NTB-2 emulsion was diluted (1:1) using ddH2O and warmed to 40 degrees C. in a dark room. […] Slides were observed under dark-field microscopy (Olympus, Tokyo, Japan) and silver grains in regions of interest were assessed. […]
# [2] = test system: hypothalamic creatine and phosphocreatine; assay: Creatine assay (HPLC) of hypothalamic blocks; format: in vivo, rat; conditions: 48 hours after 0.4 um/kg
# Protocol: Hypothalamic blocks were rapidly dissected from animals treated icv with vehicle or CoPP at the indicated doses and snap-frozen in liquid nitrogen. They were stored at -80 degrees C. until they were crushed into a powder under liquid nitrogen and homogenized in 0.5 M PCA. Samples were then centrifuged at 4 degrees C. for 10 minutes at 15,000×g and the resulting supernatant neutralized with 1 M KOH. HPLC analysis was performed essentially as described. Samples were injected onto a Partisil 10 SAX analytical column which was eluted […] starting with Buffer A (0.01M H2PO4) and changing to Buffer B ([…]). The column was run on a Waters HPLC equipped with a Waters 996 Photodiode Array Detector and a Waters 717+ Auto Sampler. Both creatine and phosphocreatine standards were run with each sample set. Results are expressed as nanomoles per mg wet weight.
# Fos (c-fos protein) = assay: Fos immunohistochemistry of hypothalamic sections 4 hours after icv injection; format: in vivo, rat; conditions: 4 hours after icv injection, percent of area stained
# Protocol: In experiments involving immunohistochemistry, animals were injected icv with beta-GPA or with vehicle. Four hours after injection, animals were anesthetized with halothane and perfused through the left ventricle of the heart, initially with oxygenated Krebs buffer and then with ˜350 ml of 4% paraformaldehyde in 0.1M NaCl, pH 7.4 phosphate buffered saline (PBS). Brains were extracted from the skull, hypothalamic blocks dissected (by coronal cuts anterior and posterior to hypothalamic landmarks) and post-fixed in 4% paraformaldehyde solution at 4 degrees C. overnight. The following day, the blocks were transferred to 30% sucrose and incubated overnight at 4 degrees C. After freezing in Optimum Cutting Temperature (OCT) compound (Sakura, Japan), blocks were sectioned coronally at 40 um on a cryostat and sections individually floated in multi-well dishes filled with PBS. Sections were treated for 30 minutes with 0.4% Triton detergent in potassium PBS to aid in antibody penetration. Primary antibodies were added, the plates shaken gently for 1 hour at room temperature, then incubated at 4 degrees C. for 72 hours. Sections were then brought to room temperature while shaking and the primary antibody solution was removed by washing 3 times with PBS buffer. After removal of the last wash, the secondary antibody solution was added and the plates incubated for 2 hours at room temperature in the dark. Removal of the second antibody was achieved by washing three times with PBS buffer prior to mounting on subbed slides. They were allowed to dry, rewetted with PBS buffer and cover-slipped with Citifluor (Ted Pella, Reading, Calif.).
# Fos studies were performed using indirect fluorescence visualization. The method utilized rabbit c-Fos-AB5 (1:2,000; Oncogene Research Products, Cambridge, Mass.) with goat anti-rabbit Cy3 (1:500; Jackson Immuno Research Laboratories, West Grove, Pa.) as the secondary antibody. […] Staining observed in experimental tissue was compared to that observed from experiment-matched negative controls. […] Immunoreactive Fos (Fos IR) was quantified by capturing images at 10× using MagnaFire 2.0 Software. These images were imported into the Metamorph 6.1 Software package and density of staining measured using Hue Saturation Intensity. Regions outlining nuclei were hand drawn with an electric pen and the total areas and stained areas measured to yield percentages of total areas with specific Fos-IR. The values for left and right dorsomedial nuclei in each rat were averaged, and the averages used to calculate means. In the case of the III ventricle, the entire image was used for quantification prior to calculating the percentage of the area with Fos-IR.
compound,measurement,setting,value
"C=Cc1c(C)c2cc3[nH]c(cc4nc(cc5nc(cc1[nH]2)C(C)=C5CCC(=O)[O-])C(CCC(=O)[O-])=C4C)c(C)c3C=C.[Co+2] [CoPP, Cobaltic protoporphyrin IX]",CrT mRNA in situ hybridization compared to control,[1],increased
same,decrease in hypothalamic phosphocreatine concentrations,[2]; failed to meet statistical significance,about 40%
same,decrease in hypothalamic creatine concentrations,"[2]; versus vehicle-treated or fasted rats, p=0.008",about 20%
same,Fos IR in the dorsomedial nucleus,Fos (c-fos protein),6.86 ± 5.85%
same,Fos IR in the paraventricular nucleus,Fos (c-fos protein),4.44 ± 2.22%
same,Fos IR in the midsection of the ventral III ventricle,Fos (c-fos protein); p<0.025,48.3 ± 11.18%

# Reference: US20090305225A1, “Inhibition of Creatine Uptake to Promote Weight Loss” (priority 2005, published 2009)
